Values of other authors, collected in publication PMC3468400, “Pharmacokinetic profiles of artesunate following multiple intravenous doses of 2, 4, and 8 mg/kg in healthy volunteers: Phase 1b study” (Malaria Journal, 2012).

Conditions: human, in vivo, po; cited from earlier work

C[C@H]1[C@H](OC(=O)CCC(=O)O)O[C@@H]2O[C@@]3(C)CC[C@H]4[C@H](C)CC[C@@H]1[C@@]24OO3 [AS, 4-(10’dihydro-artemisinin-oxymethyl) succinate]
Cmax and AUC on the last dose day as compared to the first day: about one-third to one-seventh
